Data from article PMC10945555, “Improving Activity of New Arylurea Agents against Multidrug-Resistant and Biofilm-Producing Staphylococcus epidermidis” (ACS Medicinal Chemistry Letters, 2024).
Values after ≈ are worked out from the molar mass of the structure shown. Like-named read-outs stand apart in the source and are kept apart here.

Legend:
Type in all cases: cell-based
[1] = test system: clinical MDR Staphylococcus epidermidis isolates; assay: MIC, broth microdilution, 81 clinical MDR strains; settings: Staphylococcus epidermidis
Description: (§1) 2 Biological assay protocols
(§2) Microbiological tests were carried out under aseptic conditions in a laminar chamber of the 2nd […]
(§3) (BioTectum 1.2, Alchem Poland). The assessment of antimicrobial activity was carried out for final compounds in the form of free bases, soluble in DMSO (Merck, Germany), at the initial […]
(§4) concentration of 1 mg/mL. […]
were provided by Cayman Chemical, USA. […]
The antibacterial activity of selected compounds was also tested on a panel of 81 unrelated, multidrug -resistant clinical strains of Staphylococcus epidermidis from the own collection of the Department of Pharmaceutical Microbiology of the Jagiellonian University Medical College.
(§5) 2.2 Effect of evaluated compounds on planktonic cells
(§6) The susceptibility of three reference bacterial strains (Staphylococcus epidermidis ATCC […]
(§7) Table S1) and 81 clinical MDR S. epidermidis (Table S2) to the tested compounds was assessed by determining the MIC value (Minimal Inhibitory Concentration) by microdilution in a liquid medium in 96-well flat-bottom cell culture plates (Nest Biotechnology Scientific, USA). The antibacterial properties of the compo unds were tested in the concentration range from 50 µg/mL to 0.1 µg/mL by making a series of double dilutions of the compound in liquid Mueller -Hinton II Broth Cation Adjusted (MHB II, BBL TM, USA) according to the European Committee on […]
(§8) Antimicrobial Susceptibility Testing guidelines (EUCAST).2,3 The determinations were performed twice. The MIC50 and MIC90 values were determined for each of the tested

[2] = test system: Staphylococcus aureus ATCC BAA-976; assay: MIC, broth microdilution, MDR/BPSA reference strain; settings: ATCCBAA976; Staphylococcus aureus ATCC BAA-976; read-out: MIC MDR/BPSA
Source text: (§9) These strains included susceptible, multidrug-resistant, and biofilm-producing strains of S. epidermidis and S. aureus (MSSE, MDR/BPSE, and MDR/BPSA, respectively). The cornerstone antibiotic linezolid served as a positive control (Table 1). The impact of structural modifications at the aryloxy fragment and the aromatic moiety bound to the propyl linker on the inhibitory activity was initially investigated. […] Further optimization focused on evaluating the impact of the type of substituent and its position on the arylsulfonamide fragment’s activity.
as §1, §2, §3, §4
(§10) were provided by Cayman Chemical, USA.
(§11) The activity of all newly synthesized compounds was tested in vitro on a panel of selected reference strains from the American Type Culture Collection (ATCC) of Gram-positive […]
as §5, §6, §7, §8

[3] = test system: Staphylococcus epidermidis ATCC 35984; assay: MIC, broth microdilution, MDR/BPSE reference strain; settings: Staphylococcus epidermidis, ATCC35984, read-out: MIC MDR/BPSE, Staphylococcus epidermidis ATCC 35984
Source text: as §9, §1, §2, §3, §4, §10, §11, §5, §6, §7, §8

SMILES: O=S(=O)(NC1CCN(CCC(Oc2ccc(C(F)(F)F)cc2)c2cccs2)CC1)c1cccc(Br)c1 (centres unmarked) [Compound 18]
- MIC ([1]; clinical strain 1 (Table S2), read-out: MIC): 0.8 µg/mL (≈ 1.33 µM)
- MIC ([1]; clinical strain 2 (Table S2), read-out: MIC): 3.12 µg/mL (≈ 5.18 µM)
- MIC ([1]; clinical strain 3 (Table S2), read-out: MIC): 6.25 µg/mL (≈ 10.4 µM)
- MIC ([1]; clinical strain 4 (Table S2), read-out: MIC): 50 µg/mL (≈ 82.8 µM)
- MIC ([1]; clinical strain 5 (Table S2), read-out: MIC): 1.6 µg/mL (≈ 2.65 µM)
- MIC ([1]; clinical strain 6 (Table S2), read-out: MIC): 12.5 µg/mL (≈ 20.7 µM)
- MIC ([1]; clinical strain 7 (Table S2), read-out: MIC): 25 µg/mL (≈ 41.4 µM)
- MIC ([1]; clinical strain 8 (Table S2), read-out: MIC): 3.12 µg/mL (≈ 5.18 µM)
- MIC ([1]; clinical strain 9 (Table S2), read-out: MIC): 50 µg/mL (≈ 82.8 µM)
- MIC ([1]; clinical strain 10 (Table S2), read-out: MIC): 50 µg/mL (≈ 82.8 µM)
- MIC ([1]; clinical strain 11 (Table S2), read-out: MIC): 6.25 µg/mL (≈ 10.4 µM)
- MIC ([1]; clinical strain 12 (Table S2), read-out: MIC): 12.5 µg/mL (≈ 20.7 µM)
- MIC ([1]; clinical strain 13 (Table S2), read-out: MIC): 12.5 µg/mL (≈ 20.7 µM)
- MIC ([1]; clinical strain 14 (Table S2), read-out: MIC): 50 µg/mL (≈ 82.8 µM)
- MIC ([1]; clinical strain 15 (Table S2), read-out: MIC): 50 µg/mL (≈ 82.8 µM)
- MIC ([1]; clinical strain 16 (Table S2), read-out: MIC): 50 µg/mL (≈ 82.8 µM)
- MIC ([1]; clinical strain 17 (Table S2), read-out: MIC): 12.5 µg/mL (≈ 20.7 µM)
- MIC ([1]; clinical strain 18 (Table S2), read-out: MIC): 50 µg/mL (≈ 82.8 µM)
- MIC ([1]; clinical strain 19 (Table S2), read-out: MIC): 6.25 µg/mL (≈ 10.4 µM)
- MIC ([1]; clinical strain 20 (Table S2), read-out: MIC): 3.12 µg/mL (≈ 5.18 µM)
- MIC ([1]; clinical strain 21 (Table S2), read-out: MIC): 3.12 µg/mL (≈ 5.18 µM)
- MIC ([1]; clinical strain 22 (Table S2), read-out: MIC): 3.12 µg/mL (≈ 5.18 µM)
- MIC ([1]; clinical strain 23 (Table S2), read-out: MIC): 0.8 µg/mL (≈ 1.33 µM)
- MIC ([1]; clinical strain 24 (Table S2), read-out: MIC): 3.12 µg/mL (≈ 5.18 µM)
- MIC ([1]; clinical strain 25 (Table S2), read-out: MIC): 6.25 µg/mL (≈ 10.4 µM)
- MIC ([1]; clinical strain 26 (Table S2), read-out: MIC): 50 µg/mL (≈ 82.8 µM)
- MIC ([1]; clinical strain 27 (Table S2), read-out: MIC): 0.8 µg/mL (≈ 1.33 µM)
- MIC ([1]; clinical strain 28 (Table S2), read-out: MIC): 50 µg/mL (≈ 82.8 µM)
- MIC ([1]; clinical strain 29 (Table S2), read-out: MIC): 50 µg/mL (≈ 82.8 µM)
- MIC ([1]; clinical strain 30 (Table S2), read-out: MIC): 50 µg/mL (≈ 82.8 µM)
- MIC ([1]; clinical strain 31 (Table S2), read-out: MIC): 50 µg/mL (≈ 82.8 µM)
- MIC ([1]; clinical strain 32 (Table S2), read-out: MIC): 50 µg/mL (≈ 82.8 µM)
- MIC ([1]; clinical strain 33 (Table S2), read-out: MIC): 50 µg/mL (≈ 82.8 µM)
- MIC ([1]; clinical strain 34 (Table S2), read-out: MIC): 50 µg/mL (≈ 82.8 µM)
- MIC ([1]; clinical strain 35 (Table S2), read-out: MIC): 1.6 µg/mL (≈ 2.65 µM)
- MIC ([1]; clinical strain 36 (Table S2), read-out: MIC): 50 µg/mL (≈ 82.8 µM)
- MIC ([1]; clinical strain 37 (Table S2), read-out: MIC): 50 µg/mL (≈ 82.8 µM)
- MIC ([1]; clinical strain 38 (Table S2), read-out: MIC): 50 µg/mL (≈ 82.8 µM)
- MIC ([1]; clinical strain 39 (Table S2), read-out: MIC): 50 µg/mL (≈ 82.8 µM)
- MIC ([1]; clinical strain 40 (Table S2), read-out: MIC): 50 µg/mL (≈ 82.8 µM)
- MIC ([1]; clinical strain 41 (Table S2), read-out: MIC): 6.25 µg/mL (≈ 10.4 µM)
- MIC ([1]; clinical strain 42 (Table S2), read-out: MIC): 1.6 µg/mL (≈ 2.65 µM)
- MIC ([1]; clinical strain 43 (Table S2), read-out: MIC): 1.6 µg/mL (≈ 2.65 µM)
- MIC ([1]; clinical strain 44 (Table S2), read-out: MIC): 50 µg/mL (≈ 82.8 µM)
- MIC ([1]; clinical strain 45 (Table S2), read-out: MIC): 50 µg/mL (≈ 82.8 µM)
- MIC ([1]; clinical strain 46 (Table S2), read-out: MIC): 50 µg/mL (≈ 82.8 µM)
- MIC ([1]; clinical strain 47 (Table S2), read-out: MIC): 50 µg/mL (≈ 82.8 µM)
- MIC ([1]; clinical strain 48 (Table S2), read-out: MIC): 50 µg/mL (≈ 82.8 µM)
- MIC ([1]; clinical strain 49 (Table S2), read-out: MIC): 50 µg/mL (≈ 82.8 µM)
- MIC ([1]; clinical strain 50 (Table S2), read-out: MIC): 50 µg/mL (≈ 82.8 µM)
- MIC ([1]; clinical strain 51 (Table S2), read-out: MIC): 50 µg/mL (≈ 82.8 µM)
- MIC ([1]; clinical strain 52 (Table S2), read-out: MIC): 50 µg/mL (≈ 82.8 µM)
- MIC ([1]; clinical strain 53 (Table S2), read-out: MIC): 50 µg/mL (≈ 82.8 µM)
- MIC ([1]; clinical strain 54 (Table S2), read-out: MIC): 50 µg/mL (≈ 82.8 µM)
- MIC ([1]; clinical strain 55 (Table S2), read-out: MIC): 50 µg/mL (≈ 82.8 µM)
- MIC ([1]; clinical strain 56 (Table S2), read-out: MIC): 50 µg/mL (≈ 82.8 µM)
- MIC ([1]; clinical strain 57 (Table S2), read-out: MIC): 50 µg/mL (≈ 82.8 µM)
- MIC ([1]; clinical strain 58 (Table S2), read-out: MIC): 50 µg/mL (≈ 82.8 µM)
- MIC ([1]; clinical strain 59 (Table S2), read-out: MIC): 50 µg/mL (≈ 82.8 µM)
- MIC ([1]; clinical strain 60 (Table S2), read-out: MIC): 50 µg/mL (≈ 82.8 µM)
- MIC ([1]; clinical strain 61 (Table S2), read-out: MIC): 50 µg/mL (≈ 82.8 µM)
- MIC ([1]; clinical strain 62 (Table S2), read-out: MIC): 50 µg/mL (≈ 82.8 µM)
- MIC ([1]; clinical strain 63 (Table S2), read-out: MIC): 50 µg/mL (≈ 82.8 µM)
- MIC ([1]; clinical strain 64 (Table S2), read-out: MIC): 50 µg/mL (≈ 82.8 µM)
- MIC ([1]; clinical strain 65 (Table S2), read-out: MIC): 6.25 µg/mL (≈ 10.4 µM)
- MIC ([1]; clinical strain 66 (Table S2), read-out: MIC): 3.12 µg/mL (≈ 5.18 µM)
- MIC ([1]; clinical strain 67 (Table S2), read-out: MIC): 50 µg/mL (≈ 82.8 µM)
- MIC ([1]; clinical strain 68 (Table S2), read-out: MIC): 50 µg/mL (≈ 82.8 µM)
- MIC ([1]; clinical strain 69 (Table S2), read-out: MIC): 50 µg/mL (≈ 82.8 µM)
- MIC ([1]; clinical strain 70 (Table S2), read-out: MIC): 50 µg/mL (≈ 82.8 µM)
- MIC ([1]; clinical strain 71 (Table S2), read-out: MIC): 50 µg/mL (≈ 82.8 µM)
- MIC ([1]; clinical strain 72 (Table S2), read-out: MIC): 50 µg/mL (≈ 82.8 µM)
- MIC ([1]; clinical strain 73 (Table S2), read-out: MIC): 50 µg/mL (≈ 82.8 µM)
- MIC ([1]; clinical strain 74 (Table S2), read-out: MIC): 50 µg/mL (≈ 82.8 µM)
- MIC ([1]; clinical strain 75 (Table S2), read-out: MIC): 50 µg/mL (≈ 82.8 µM)
- MIC ([1]; clinical strain 76 (Table S2), read-out: MIC): 50 µg/mL (≈ 82.8 µM)
- MIC ([1]; clinical strain 77 (Table S2), read-out: MIC): 0.8 µg/mL (≈ 1.33 µM)
- MIC ([1]; clinical strain 78 (Table S2), read-out: MIC): 50 µg/mL (≈ 82.8 µM)
- MIC ([1]; clinical strain 79 (Table S2), read-out: MIC): 50 µg/mL (≈ 82.8 µM)
- MIC ([1]; clinical strain 80 (Table S2), read-out: MIC): 50 µg/mL (≈ 82.8 µM)
- MIC ([1]; clinical strain 81 (Table S2), read-out: MIC): 3.12 µg/mL (≈ 5.18 µM)
- MIC ([1]; mean of MIC values against clinical MDR-SE isolates, read-out: mean MIC): 35.2 µg/mL (≈ 58.3 µM)
- MIC50 ([1]; 81 clinical strains, concentration inhibiting growth of 50% clinical isolates): 50 µg/mL (≈ 82.8 µM)
- MIC90 ([1]; 81 clinical strains, concentration inhibiting growth of 90% of clinical isolates): 50 µg/mL (≈ 82.8 µM)
- MIC [2]: 50 µg/mL (≈ 82.8 µM)
- MIC [3]: ≤ 0.8 µg/mL
